Experimental data published in patent US20070042026A1, “Prophylactic and therapeutic treatment of topical and transdermal drug-induced skin reactions” (priority 2005, published 2007).

Legend:
[1] = tested on: mouse skin; conditions: cited from earlier work; for contact sensitization in a mouse skin model (mast cell degranulating agents): in vivo
[2] = tested on: mouse skin; conditions: cited from earlier work
[3] = Rosmarinic acid 5%; cited from earlier work
[4] = DPPH* free-radical scavenging anti-oxidant assay; conditions: absorbance at 595 nm, after 30 minutes of incubation at 25° C.; read-out: molar activity (EC50, concentration that lowers the zero time optical absorbance of DPPH by 50 percent)
Method: Solutions of test compounds were assayed for their antioxidant activity by the free-radical scavenging method that uses diphenylpicryl hydrazine (DPPH*) reagent as described previously (Bonina et al, 2003). In order to standardize the activity, we defined for each compound, an EC50 value as the concentration that lowers the zero time optical absorbance of DPPH at 595 nm by 50 percent measured after 30 minutes of incubation at 25° C.

[5] = tested on: volar arm skin of volunteers; assay: 24-hour occlusive patch (Finn chamber) anti-irritant test with 0.5% benzalkonium chloride carrier gels; format: in vivo, human
Method: Occlusive patch testing was conducted on extracts prepared by starch gel encapsulation in a oil-in water emulsion system previously described (Wille, 2003).
Anti-irritant assays: All carrier system gels were prepared with 0.5% benzalkonium chloride, a mild irritant. To test for anti-irritancy, the irritant-containing carrier gels were also loaded with the test botanical extracts (experimentals). The control and test gels were deposited (100 microliters) on 10 mm square circular filter paper discs and placed in side of Finn chambers (20 mm square), which were then applied to the volar arm skin of volunteers. The chambers were affixed to skin with non-allergic adhesive tape and left in place for 24 hours. Upon termination of the treatments, the chambers were removed and the skin gently wiped clean with moistened cotton swabs. The exposed skin was first examined for signs of erythema (redness) and induration (swelling), and skin sites photographed. The exposed skin sites were probed for skin capacitance (skin moisture levels) using a Corneometer instrument (Courage & Khazaka, Koln, Germany).

[6] = tested on: HaCat keratinocytes; assay: Retinoid-stimulated autocrine clonal growth of HaCat keratinocytes (biochemical assay for anti-irritant activity); format: cell-based, human; conditions: 10 μM, 48 hours after treatment, retinoid-stimulated autocrine growth conditions
Method: Since retinoids irritate skin leading to epidermal hyperplasia, we have employed an in vitro cell culture method to detect antioxidants that act to inhibit retinoid-stimulated autocrine growth of human keratinocytes.
Method: An immortalized line of human epidermal kertatinocytes, HaCat keratinocytes, can be cultured in a serum-free culture medium. Sterile Petri dishes (35 mm^2) are seeded at 5,000 cells per cm^2 and placed in a humidifed CO2 incubator at 37° C. for 3-5 days or until the culture reaches about 30% confluent monolayer growth. The dishes are washed once with ice-cold serum-free media lacking EGF and insulin, and refed 2.5 ml of serum-free culture medium containing 5 ug/ml insulin and retinyl acetate (RA, 3×10^−8 M). Duplicate control dishes are fixed and stained with 0.2% crystal violet to record the amount of clonal growth prior to refeeding with fresh RA-containing medium. Test dishes refed RA and insulin are split into three groups in duplicate. Group A is refed on the RA plus insulin medium. Group B is refed RA plus insulin medium and a […] inhibitor (PD 153035), and Group C is refed medium containing RA plus insulin and from 0.1 to 5% of a hydroalcoholic botanical extract. All dishes are adjusted to have the same final concentration of alcohol (1%). All dishes are placed back in the incubator for 2 and 4 days. They are fixed and stained with 0.2% crystal violet. […]

## C=C(CC)C(=O)c1ccc(OCC(=O)O)c(Cl)c1Cl [Ethacrynic acid]
[1]; delivery of the sensitizing drugs to mouse skin
  prevention of contact sensitization due to Clonidine, Chlorpheniramine, Albuterol and Nadolol: effective
[2]; topical application to mouse
  prevention of skin irritation due to 2,4-dinitro-chlorobenzene, arachidonic acid, phorbol myristic acid, trans-retinoic acid and lactic acid: effective

## O=C(O)COc1ccccc1 [Phenoxyacetic acid]
[1]; application of the hair dye to mouse skin
  contact sensitization due to para-phenylenediamine: prevent contact sensitization
[2]; mouse, in vivo
  skin irritation due to a panel of known skin irritants including sodium lauryl sulfate: block skin irritation

## O=C(/C=C/c1ccc(O)c(O)c1)O[C@H](Cc1ccc(O)c(O)c1)C(=O)O [Rosmarinic acid]
[3]
  reduction of the irritating action of alpha-hydroxy acids (lactic and glycolic acids): over three-fold

## COc1ccc(CCN(C)CCCC(C#N)(c2ccc(OC)c(OC)c2)C(C)C)cc1OC (stereo not shown) [Verapamil]
[1]; topical application of Nadolol to mouse skin
  minimizing contact sensitization due to Nadolol: effective

## O=C1O[C@H]([C@@H](O)CO)C(O)=C1O [ascorbic acid]
[4]
  EC50: 26 µM

## CCCCCCCCCCCCCCCC(=O)OC[C@H](O)[C@H]1OC(=O)C(O)=C1O [ascorbyl palmitate]
[4]
  EC50: 30 µM

## COc1cc(CNC(=O)CCCC/C=C/C(C)C)ccc1O [capsaicin]
[1]
  contact sensitization in a mouse skin model (mast cell degranulating agents): prevent contact sensitization

## O=C(O)/C=C\c1c[nH]cn1 [cis-urocanic acid]
[1]
  contact sensitization in a mouse skin model (mast cell degranulating agents): prevent contact sensitization

## O=C(O)c1cc(O)c(O)c(O)c1 [gallic acid, 3,4,5-trihydroxybenzoic acid]
[5]; 24 hour occlusion
  effect on benzalkonium chloride induced skin irritation: anti-irritant effect
[5]; gallic acid alone, 24 hours of occlusion
  irritancy to skin: not irritating to skin
[5]; gallic acid alone, after 24 hours of occlusion
  skin hydration profile: does not alter skin hydration profile

## O.O.O=c1c(O)c(-c2ccc(O)c(O)c2)oc2cc(O)cc(O)c12 [quercetin dihydrate]
[6]
  clonal growth relative to the untreated control: completely inhibited
[4]
  EC50: 86 µM

## Cc1c(C)c2c(c(C)c1O)CC[C@@](C)(CCC[C@H](C)CCC[C@H](C)CCCC(C)C)O2 [vitamin E, alpha-tocopherol]
[4]
  EC50: 46 µM
